Measurements: patent publication US12486241B2, “Cystine diamide analogs for cystinuria” (Rutgers, The State University of New Jersey, priority 2019, dated 2025)
Counter-ions that a name gives are not always drawn.

Columns and labels:
[1] = L-cystine crystallization inhibition assay (metastable supersaturated L-cystine solution; L-cystine concentration by fluorescence or cyanide-nitroprusside colorimetric assay); settings: for Ratio (improvement in potency over the control): footnote names L-cystine dimethylester (CDME) as control, LH708 = 1.00; for EC50: test compound in L-cystine supersaturated solution (~3 mM), 25° C. for 72 h, read-out: EC50 (Aqueous Solubility of L-Cystine)
Protocol: Example 21 Preparation of the Metastable Supersaturated Solution of L-Cystine and the Cystallizaiton Inhibition Assay
For the preparation of L-cystine supersaturated solution 70 mg of L-cystine was dissolved in 100 mL of Millipore water (˜3 mM) under reflux at 120° C. for 30 min until the L-cystine was completely dissolved. The supersaturated solution was then allowed to cool slowly with stirring until the oil bath temperature reached 40° C. take about 70 min depending on the lab atmosphere. To determine the L-cystine concentration all test compounds were dissolved in water to form 10 mM stock solution. Five uL of each solution was added to 495 uL L-cystine supersaturated solution. The mixtures were allowed to stand at 25° C. for 72 h. At the end of incubation, the mixtures were centrifuged at 13,000 rpm for 5 min and the supernatants were diluted 10-fold for concentration measurement. To construct the standard curves L-Cystine (2.1 mg) was dissolved in 0.1 M Na2CO3 solution (9 mL) to form a 1 mM solution as a stock solution. Then, 50 uL L-cystine stock solution was diluted to 0.6 mM with 0.1 M Na2CO3 ([…]) solution and to 0.4, 0.2, 0.1, 0.05 mM solution using Millipore water 75, 200, 450 and 950 uL, respectively.
Fluorescence Assay for the Determination of L-Cystine Concentration
10 μL of each L-cystine solutions or test compound diluted mixtures, 100 μL of DTT solution (12.5 mM) in 0.1 M dibasic sodium phosphate solution (1:9), were mixed at r.t. for 10 min, before the addition of 10 μL of iodoacetic acid (100 mM) and continued incubation at r.t. for an additional 15 min. This was then followed by the addition of 20 μL of OPA (100 mM in methanol)/NBC (100 mM in methanol) (1:1). The derivatization was allowed to proceed for 3 min before 3×40 μL of the mixture were placed in a 384-well plate and read at Ex 355 nm/Em 460 nm. The standard curve was repeated for each set of experiments and used to calculate the concentration of L-cystine in each sample.
Cyanide-Nitroprusside Colorimetric Assay for the Determination of L-Cystine Concentration
3×40 μL of each L-cystine solutions or test compound diluted mixtures were placed in a 96-well plate (black, clear bottom). 80 μL of aqueous solution of potassium cyanide (30% w/v) in PBS (pH=7.4) (1:7) was added to each well then the plate was left to shake at 550 rpm for 25 min. 10 μL of aqueous solution of sodium nitroprusside (20% w/v) was added to each well using automated dispenser then the plate was centrifuged immediately at 1500 rpm for 20 sec. Then the UV absorbance was measured at 530 nm using Victor 3 V plate reader. The standard curve was repeated for each plate and used to calculate the concentration of L-cystine in each sample.

[2] = in water; cited from earlier work
[3] = test system: rats; settings: cited from earlier work
[4] = test system: cell culture; settings: cell culture experiments; cited from earlier work

Row | EC50 [1] | SMILES | Ratio (improvement in potency over the control) [1] | Concentration at which crystallization of L-cystine is almost completely inhibited [2] | Dosage demonstrating adverse effects [3] | Concentration causing loss of cell viability [4]
1 | 42.8 ± 0.7 nM | CN1CCN(C(=O)[C@@H](N)CSSC[C@H](N)C(=O)N2CCN(C)CC2)CC1 [LH708, reference compound] | 1.00 | – | – | –
2 | 143 ± 9.8 nM | N[C@@H](CSSC[C@H](N)C(=O)NCCN1CCCCC1)C(=O)NCCN1CCCCC1 [LH1737, L-Cystine bis(N′-piperidinoethyleneamide) tetrahydrochloride] | 0.30 | – | – | –
3 | 108 ± 3.1 nM | CC1(C)CNCCN1C(=O)[C@@H](N)CSSC[C@H](N)C(=O)N1CCNCC1(C)C [LH1733, L-Cystine bis(2′,2′-dimethylpiperazide) tetrahydrochloride] | 0.40 | – | – | –
4 | 32 ± 2.5 nM | CC(C)(C)N1CCN(C(=O)[C@@H](N)CSSC[C@H](N)C(=O)N2CCN(C(C)(C)C)CC2)CC1 [LH1729, L-Cystine bis(N′-tert-butylpiperazide) tetrahydrochloride] | 1.34 | – | – | –
5 | 51.2 ± 3.7 nM | CN(C)C1CCN(C(=O)[C@@H](N)CSSC[C@H](N)C(=O)N2CCC(N(C)C)CC2)CC1 [LH1751, L-Cystine bis(4′-(dimethylamino)-piperidineamide) tetrahydrochloride] | 0.84 | – | – | –
6 | 79.7 ± 7.7 nM | N[C@@H](CSSC[C@H](N)C(=O)NCCN1CCOCC1)C(=O)NCCN1CCOCC1 [LH1738, L-Cystine bis(N′-morpholinoethyleneamide) tetrahydrochloride] | 0.54 | – | – | –
7 | 68.8 ± 4.1 nM | N[C@@H](CSSC[C@H](N)C(=O)N1CCN(C2CC2)CC1)C(=O)N1CCN(C2CC2)CC1 [LH1730, L-Cystine bis(N′-cyclopropylpiperazide) tetrahydrochloride] | 0.62 | – | – | –
8 | 160 ± 10.6 nM | N[C@@H](CSSC[C@H](N)C(=O)NCCCN1CCOCC1)C(=O)NCCCN1CCOCC1 [LH1741, L-Cystine bis (1′-morpholine-3′-aminopropaneamide) tetrahydrochloride] | 0.27 | – | – | –
9 | 163 ± 10.8 nM | CN(C)CCNC(=O)[C@@H](N)CSSC[C@H](N)C(=O)NCCN(C)C [LH1734, L-Cystine bis (N′,N′-dimethylethyleneamide) tetrahydrochloride] | 0.26 | – | – | –
10 | 36.5 ± 1.6 nM | N[C@@H](CSSC[C@H](N)C(=O)N1CCC(N2CCCC2)CC1)C(=O)N1CCC(N2CCCC2)CC1 [LH1752, L-Cystine bis(4′-(1″-Pyrrolidinyl)piperidine) tetrahydrochloride] | 1.17 | – | – | –
11 | – | COC(=O)[C@@H](N)CSSC[C@H](N)C(=O)OC [CDME, L-cystine dimethylester] | – | above 2 mg/L | approximately 500 mg/kg per day | approximately 1 mM
12 | 500 ± 26.5 nM | N[C@@H](CSSC[C@H](N)C(=O)N1CCN(c2ccccc2)CC1)C(=O)N1CCN(c2ccccc2)CC1 [LH1732] | 0.09 | – | – | –
13 | 163 ± 12.5 nM | N[C@@H](CSSC[C@H](N)C(=O)NCCCN1CCCC1)C(=O)NCCCN1CCCC1 [LH1740, L-Cystine bis(1′-pyrrolidine-3′-aminopropaneamide) tetrahydrochloride] | 0.26 | – | – | –
14 | 116 ± 6.1 nM | N[C@@H](CSSC[C@H](N)C(=O)NCCN1CCCC1)C(=O)NCCN1CCCC1 [LH1735, L-Cystine bis(N′-pyrrolidinoethyleneamide) tetrahydrochloride] | 0.37 | – | – | –
15 | 114 ± 9.4 nM | CN(C)CCCNC(=O)[C@@H](N)CSSC[C@H](N)C(=O)NCCCN(C)C [LH1739, L-Cystine bis (N′,N′-dimethyl-1′,3′-diaminopropaneamide) tetrahydrochloride] | 0.37 | – | – | –
16 | 120 ± 13 nM | N[C@@H](CSSC[C@H](N)C(=O)N1CCCC12CCNCC2)C(=O)N1CCCC12CCNCC2 [LH1754, L-Cystine bis(1,8-Diazaspiro[4.5]decan-1-yl) tetrahydrochloride] | 0.36 | – | – | –
17 | 25.1 ± 2.4 nM | N[C@@H](CSSC[C@H](N)C(=O)N1CCC2(CCCN2)CC1)C(=O)N1CCC2(CCCN2)CC1 [LH1753, L-Cystine bis(1,8-Diazaspiro[4.5]decan-8-yl) tetrahydrochloride] | 1.70 | – | – | –
18 | 52.6 ± 0.8 nM | N[C@@H](CSSC[C@H](N)C(=O)N1CCNCC1)C(=O)N1CCNCC1 [LH1726, L-Cystine bispiperazide tetrahydrochloride] | 0.81 | – | – | –
19 | 39.5 ± 1.3 nM | N[C@@H](CSSC[C@H](N)C(=O)N1CCN(C2CCCC2)CC1)C(=O)N1CCN(C2CCCC2)CC1 [LH1731, L-Cystine bis(N′-cyclopentylpiperazide) tetrahydrochloride] | 1.08 | – | – | –
